Assay results published in US11717557B2, “Use of PRG4 as an anti-inflammatory agent” (Lubris LLC, priority 2015, dated 2023).

How the values were obtained:
[1] = target: T1, CD44 (Homo sapiens, UniProt P16070); assay: Concentration-dependent binding to CD44, direct ELISA
T1 construct: purchased R & D systems
Procedure: High-binding microtiter plates (Corning, Sigma Aldrich, USA) were coated with rhPRG4 (Mr≅240 KDa), high molecular weight HA (HMW HA; Mr≈1,500 KDa) (R & D System, USA), medium molecular weight HA (MMW HA; Mr≈300 KDa) (R & D System) and vitronectin (Mr≅75 KDa) (Sigma Aldrich) at 400 μg/mL in PBS buffer (100 μL per well) overnight at 4° C. rhPRG4 is a full-length product produced by CHO-M cells (Lubris, Framingham, Mass., USA). Following washing with PBS+0.1% Tween 20, wells were blocked with 2% bovine serum albumin (BSA; 300 μL per well) for at least 2 hours at room temperature. CD44-IgG1Fc (R & D systems) or IgG1Fc (R & D systems), each at 1 μg/mL (100 μl per well), were added to the plate and incubated for 60 min at room temperature. Following washing with PBS+0.1% tween 20, anti-IgG1Fc-HRP (Sigma Aldrich) was added at 1:10,000 dilution (100 μL per well) and incubated for 60 min at room temp. Following washing with PBS+0.1% tween 20, the assay was developed using 1-step Turbo TMB ELISA reagent (ThermoScientific, USA) and absorbance was measured at 450 nm. The data represents an average of 4 independent assays, each with triplicate wells per group.
The concentration-dependent binding of rhPRG4, HMW HA and MMW HA to CD44 was performed by coating microtiter plates with 400, 200, 100, 20, 4, 2 and 0.1 μg/mL of the macromolecules. The assay was performed as described above. The absorbance values in the IgG1Fc wells were subtracted from the absorbance values in the CD44 IgG1Fc wells and the corrected CD44 IgG1Fc absorbance values were normalized to those of the 400 μg/mL rhPRG4 group and data was expressed as percentage binding to CD44. The concentration-dependent binding of rhPRG4, HMW HA and MMW HA to recombinant CD44 is depicted in FIG. 1B. […] The data represents an average of 4 independent assays, each with triplicate wells per group.

[2] = target: T2, CD44 IgG1Fc (Homo sapiens, UniProt P16070); assay: Surface plasmon resonance binding of rhPRG4 to CD44 and competition with HMW HA
T2 construct: purchased R & D systems
Procedure: Binding of rhPRG4 to CD44-IgG1Fc was investigated using surface plasmon resonance (Biacore T100, GE Healthcare Lifesciences, NJ, USA). Series S chips were functionalized using the human antibody capture kit (GE Life Sciences) and either CD44-IgG1Fc or IgG1FC was allowed to bind to the surface of the functionalized chips in flow cell 1 (Fc1) and flow cell 2 (Fc2), respectively. rhPRG4 was injected at 30 μL/min for 8 min at concentrations of 300, 250, 200, 150, 100 and 50 μg/mL followed by a 10 min dissociation using 0.1M HEPES, 1.5M NaCl, 30 mM EDTA, and 0.5% P20 (GE Life Sciences). The surface of the chip was regenerated at the end of each cycle with 1 min pulse of 3M MgCl2. Each analyte concentration was injected in duplicate. The resulting curves were double referenced (i.e. Fc2-Fc1, followed by subtraction of the 0 μg/mL curve). The binding kinetics and binding affinity were determined by BiaEvaluation software, using 1:1 binding/conformational change model or by steady-state equilibrium, respectively. To study the competition between rhPRG4 and HMW HA in binding to CD44, rhPRG4 was injected at concentrations ranging between 0 and 300 μg/mL as described above. Following the end of dissociation phase, HMW HA was injected at 50 μg/mL (30 μL per min) for 1 min. […]

[3] = system: whole citrated blood; assay: Lubricin alone, inflammatory cytokines in whole blood; assay type: cell-based, human; conditions: lubricin 0.57 mg/mL, 60 minutes; versus saline control
Procedure: Utilizing the same approach the effect of lubricin on the generation of inflammatory cytokines in whole blood was also studied using similar experimental settings. In these studies the effect of lubricin (0.57 mg/mL) was studied by supplementing it to the whole citrated blood drawn from the normal healthy volunteers. The samples were profiled for inflammatory cytokine levels along with a saline control in samples incubated for 60 minutes. Whole blood was centrifuged to obtain plasma which was profiled for various inflammatory cytokines using high sensitivity cytokine assay.

[4] = system: traumatic brain injury; assay: Traumatic brain injury model, controlled cortical impact, Western blotting of cerebral cortex; assay type: in vivo, rats
Procedure: Approximately one hour after traumatic brain injury to rats, using an established brain injury model involving a controlled cortical impact, rhPRG4 was administered intravenously to test rats at an approximate dose of 2.5 mg/Kg. Normal saline (0.9% NaCl) was administered intravenously to control rats. One day later, brains were harvested and the samples of the cerebral cortex surrounding the post-traumatic lesion were analyzed using Western blotting.

[5] = system: sodium urate crystal induced joint pain; assay: Urate crystal gout model, Von Frey paw withdrawal; assay type: in vivo; conditions: rhPRG4 injection after urate crystals; two rats per group
Procedure: Male Lewis rats (10 weeks old; n=4) were injected with MSU suspension (50 μL; 5 mg/mL; Invivogen, California) in their knee joints. At 1 hour following MSU injection, rat knee joints were treated with 50 μL phosphate buffered saline (PBS; n=2) or rhPRG4 (50 μL; 2 mg/mL) (n=2). Paw withdrawal pressures were measured using an electronic Von Frey instrument, and data is present as percent change from baseline values.
Rats undergoing injection of sodium urate crystals were studied as a model of gout. 24 hours following the sodium urate crystal administration, rats developed joint pain. Two rats received saline while another two rats received rhPRG4 injection 24 hours after the urate crystals were introduced. These rats were studied every 12 hours utilizing the Von Frey method. This method determines afferent pain sensitization as a result of joint inflammation by probing the paws of the affected limb with a thin filament wire.

[6] = approx. 2.5 mg/Kg intravenously, versus normal saline

rhPRG4: full-length recombinant human PRG4 (lubricin) glycoprotein produced by CHO-M cells (Lubris), Mr≅240 KDa
affinity of concentration-dependent binding to CD44 [1]: comparable affinity to HMW HA
percentage CD44 binding, difference between rhPRG4, HMW HA and MMW HA-coated wells ([1]; coating 0.1 μg/mL): no significant differences
percentage recombinant CD44 binding compared to MMW HA coated wells ([1]; coating 200 μg/mL, p<0.001): significantly higher
percentage recombinant CD44 binding compared to HMW HA or MMW HA-coated wells ([1]; coating 400, 100, 20, 4 and 2 μg/mL, p<0.001): significantly higher
Kd ([2]; immobilized CD44-IgG1Fc, based on a rhPRG4 molecular weight of 240 KDa, read-out: apparent Kd): ~38 nM
effect on binding of HMW HA to recombinant CD44 ([2]; rhPRG4 0-300 μg/mL, then HMW HA 50 μg/mL, inverse relationship of binding signals): interfered with binding of HMW HA
VEGF, IL8, IL6 and IL10 [3]: most prominent decrease
production of IL-4, IL-6, IL-8, IL-10, VEGF, TNF-α, IL-1β, MCP-1 and EGF [3]: decrease
down regulation of Galectin 3 ([4]; approx. 2.5 mg/Kg intravenously about one hour after injury, brains harvested one day later, versus normal saline): 74%
attenuation of post-traumatic synthesis of matrix metalloproteinase 9 [4, 6]: 94%
inhibition of the conversion of pro-matrix metalloproteinase 2 to its enzymatically active form [4, 6]: 64%
reduction in the magnitude of post-traumatic influx of monocytes into the injured brain parenchyma ([4]; approx. 2.5 mg/Kg intravenously, versus normal saline-treated rats): 60%
reduction of the permeability of the blood-brain barrier ([4]; assessed by level of albumin in traumatized brain tissue, approx. 2.5 mg/Kg intravenously): 80%
pain (Von Frey method) versus rats which received placebo [5]: less pain
